Assay results published in PMC3689833, “Neurochemical Changes in the Mouse Hippocampus Underlying the Antidepressant Effect of Genetic Deletion of P2X7 Receptors” (PLoS ONE, 2013).

What was measured:
P2rx7+/+ mice = assay: Automated tail suspension test (TST), LPS-induced depressive behavior; assay type: in vivo, mouse; settings: LPS 1 mg/kg i.p. 24 h before, antagonist 50 mg/kg i.p. 30 min before test
Method: All experiments and treatments were performed during the light phase (7.00 AM–7.00 PM). The TST was conducted using an automated tail suspension device (BIO-TST2, Bioseb, France) in accordance with a previously described method. The device consisted of a single tail suspension module with three chambers, connected to a personal computer that recorded the activity of the animals during the test sessions. Three mice were individually suspended by the tail onto the hooks of the device using adhesive tape (distance from tip of tail was 1–2 cm). The measurements were automatically recorded within 5–10 seconds after placing the last animal into the chamber, and each measurement lasted 6 min. […] The threshold level was set at 6. To examine endotoxin-induced depressive behavior, the animals were subjected to bacterial lipopolysaccharide injection (LPS, serotype 055:B5, Sigma, St. Louis, […], USA, 1 mg/kg i.p.) at 24 h before a single 6-min test period. Brilliant blue G (BBG, 50 mg/kg i.p.) or an equal volume of saline was injected at 30 min before the test period. The time of immobility was expressed in sec. The P2rx7+/+ and P2rx7−/− mice were subjected to alternation testing. […] The data of these animals were excluded from the calculations during the post hoc analysis.

[1] = test system: BDNF level in hippocampal slices; assay: BDNF protein assay (ELISA), in vitro study in hippocampal slices; assay type: cell-based, mouse; settings: BBG 100 nM
Method: The P2rx7 wild type and knockout mice were anesthetized under light CO2 inhalation and decapitated. The hippocampus was dissected in ice-cold Krebs solution saturated with 95% O2 and 5% CO2, sectioned (400 µm thick slices) using a McIlwain tissue chopper and incubated in 2 ml of modified Krebs solution in the presence of 1 ml Hibernate medium, ascorbic acid (300 µM) and Na2EDTA (30 µM) for 60 min. The medium was bubbled continuously with 95% O2 and 5% CO2 and maintained at 37°C. The P2rx7 agonist, BzATP, was added to the incubation solution for 30 min, whereas BBG was applied 15 min before BzATP application. RO-256981, 6-cyano-7-nitroquinoxaline-2,3-dione (CNQX) and 3-Chloro-4-fluoro-N-[4[[2(phenylcarbonyl)hydrazino]carbonyl]benzyl] benzenesulfonamide (TCN-201) were applied for 15 min, while MCPG was administered for 30 min. The group I metabotropic glutamate receptor agonist, dihydroxyphenylglycine (DHPG), was administered for 10 min. The DHPG, MCPG, and RO-256981 dosages were chosen based on previous studies, [47], [48]. In the experiments with BzATP, Mg^2+ was omitted from the incubation solution. The hippocampal slices were collected, frozen on dry ice and stored at −70°C until further investigation. Each experimental group contained 3–4 mice.
At the time of analysis, the samples were removed from the freezer and weighed. The BDNF extraction procedure was performed in accordance with the methods of a previous study. For the BDNF assays, 2 ml lysis buffer (100 mM PIPES, pH 7, 500 mM NaCl, 0.2% Triton X-100, 0.1% NaN3, 2% BSA, 2 mM EDTA, 200 µM PMSF, 10 µg/mL aprotinin, 1 µg/mL leupeptin, and 0.5 mM sodium vanadate) was added to each sample, and the hippocampus was sonicated at power level 2 using pulses at 1 sec intervals for 10–15 sec. Subsequently, the samples were centrifuged at 16,000 × g for 30 min at 4°C. 100 µl aliquots of the resulting supernatants were removed and diluted with 400 µl of DPBS buffer (137 mM NaCl, 2.68 mM KCl, 1.47 mM KH2PO4, 8.1 mM Na2HPO4 (pH 7.35), 0.9 mM CaCl2·H2O, and 0.5 mM MgCl2·H2O). The supernatants were collected and stored at −70?C until further analysis. For the total free BDNF measurement, the samples were acid treated with 1 µl of 1 N HCl for each 50 µl of diluted samples to decrease the pH to 2.5, followed by incubation at room temperature for 15 min. The samples were neutralized with 1 µl of 1 N NaOH for each 50 µl of diluted samples. The levels of BDNF (both precursor and mature forms) expression were evaluated using an enzyme-linked immunosorbent assay (ELISA) kit and a BDNF Emax ImmunoAssay System (Promega Corporation, Madison, WI, USA), which is specific for mouse BDNF protein, according to the manufacturer’s instructions. The BDNF levels were calculated by plotting the optical density (OD) of each sample against the standard curve. A seven-point standard curve using two-fold serial dilutions in Reagent Diluent (according the manufacturer’s instructions) and a high standard of 500 pg/ml were used for the determination of BDNF levels. The assay detection limits were <15 pg/ml. Absorbance was measured at 450 nm using a Perkin-Elmer Victor 3V 1420 Multilabel Counter.

CCOc1ccc(Nc2ccc(/C(=C3C=C/C(=[N+](/CC)Cc4cccc(S(=O)(=O)[O-])c4)C=C/3C)c3ccc(N(CC)Cc4cccc(S(=O)(=O)O)c4)cc3C)cc2)cc1 [BBG, Brilliant blue G]
LPS-induced depressive behavior in TST (immobility) (P2rx7+/+ mice): significantly attenuated
BDNF level in hippocampal slices in the presence of BzATP ([1]; P2rx7+/+ slices, + BzATP 100 µM, Mg2+-free, RO-256981 3 µM, MCPG 200 µM, DHPG 100 µM): 77.87 ± 4.24 pg/mL
BDNF level in hippocampal slices ([1]; P2rx7+/+ slices): 118.22 ± 1.59 pg/mL
increase of basal BDNF level ([1]; P2rx7+/+ slices): 656%
BDNF level in hippocampal slices ([1]; P2rx7−/− slices): 60.31 ± 0.31 pg/mL
increase of basal BDNF level ([1]; P2rx7−/− slices): 272.7%
